US9763909B2, “Methods for treating inflammation and pain” (Olatec Therapeutics LLC, priority 2012, dated 2017)

Columns and labels:
[1] = system: arachidonic acid induced ear swelling; assay: Topical arachidonic acid induced ear swelling model, oral administration; assay type: in vivo, mice; conditions: for % Inhibition: ear swelling at 60 minutes
Method: The test compound, dexamethasone (positive control), and vehicle were orally administered to mice and evaluated for anti-inflammatory activity in the topical arachidonic acid induced ear swelling model in mice. […] All animals were maintained in a controlled temperature (22-24° C.) and humidity (60%-70%) environment with 12-hour light/dark cycles for at least one week prior to use. Arachidonic acid (0.5 mg in 20 μL acetone) was applied topically onto the anterior and posterior surfaces of the right ear of test animals to induce inflammation. […] At 60 minutes after arachidonic acid induction of ear edema, the thickness of the right ear and the left ear was measured and the difference calculated as an indication of the inflammation in the right ear.

[2] = system: IL-6; assay: Inhibition of IL-6 secretion in LPS-stimulated PBMCs; assay type: cell-based; conditions: Homo sapiens, PBMC; PBMCs stimulated with LPS (50 pg/mL); read-out: EC50 for inhibiting IL-6
Method: (§1) Objective: Test 3-(methylsulfonyl)acrylonitrile for inhibition of cytokine secretion in peripheral blood mononuclear cells (PBMCs) stimulated with lipopolysaccharide (LPS).
(§2) Cytokines: IL-1β, IL-6, TNFα
(§3) Test Compound Dose Concentrations: 50, 10, 5, 1, 0.5, 0.1 μM
(§4) Cells negative control: Vehicle only/No LPS
(§5) Positive control: Dexamethasone (100 nM, n=2)
(§6) 1. Microtiter plates were seeded with 1×10^4 PBMCs/well in […], culture medium (RPMI 1640, 10% FBS, 1% Pen/Strep, 2 mM L-Alanyl-L-glutamine)
(§7) 2. The plates were incubated at 37° C. in 5% CO2 for 1 hour.
(§8) 3. 10 μL of test compound (at different concentrations), dexamethasone, and vehicle controls were added to appropriate wells, and the plates were incubated at 37° C. in 5% CO2 for 1 hour.
(§9) 4. 40 μL of LPS (50 pg/mL final) were added and the plates were incubated at 37° C. in 5% CO2 for 1 hour.
(§10) 5. The plates were centrifuged at 1000 rpm for 10 minutes and supernatants were collected.
(§11) 6. The supernatants were assayed for IL-1β, IL-6, TNFα levels using the Luminex Bead kit.
(§12) 7. EC50 values were determined.

[3] = system: TNFα; assay: Inhibition of TNFα secretion in LPS-stimulated PBMCs; assay type: cell-based; conditions: Homo sapiens, PBMC; PBMCs stimulated with LPS (50 pg/mL); read-out: EC50 for inhibiting TNFα
Method: as §1, §2, §3, §4, §5, §6, §7, §8, §9, §10, §11, §12

[4] = system: tail-flick latency; assay: Tail-flick latency (52° C. water bath), potentiation of morphine analgesia; assay type: in vivo, mice
Method: The response of the mice to nociceptive stimuli was evaluated using the time of tail-flick or tail-flick latency from 52° C. water bath. Briefly, the animal was placed in a restrainer with its tail outside. The tail (distal ⅓rd) was immersed into 52° C. water and the time for the mouse to flick its tail out of the water was recorded. The maximum exposure permitted was 10 seconds. If there was no response within 10 seconds, the animal tail was removed from the water to prevent damage to the tail. Baseline data were collected using the tail flick procedure 2 times over 1 hour, prior to any drug administration. The last baseline response data point was used as basal tail flick latency.
3-(methylsulfonyl)acrylonitrile was dissolved in 0.5% methyl cellulose (MC) to 2 mg/mL, and orally administered to mice (n=5) in a volume of 10 ml/kg (20 mg/kg), 1 hour prior to morphine dosing. One mL plastic disposal tuberculin syringes (Becton Dickinson & Co. Franklin Lakes, N.J.) and 20 gauge×38 mm flexible plastic feeding tubes (Instech Laboratories, Plymouth Meeting, Pa.) were used for oral drug administration. Morphine at 5 mg/kg in saline was subcutaneously administered to mice at time zero.
Tail flick measurements were made at 5, 15, 30, 45, 60, and 75 minutes post-morphine administration.
Statistical evaluation was done using an appropriate analysis of variance (ANOVA) using tail flick latencies. […] Analysis with p-values <0.05 is considered significant.

[5] = system: IL-1β; assay: Inhibition of IL-1β secretion in LPS-stimulated PBMCs; assay type: cell-based; conditions: Homo sapiens, PBMC; PBMCs stimulated with LPS (50 pg/mL); read-out: EC50 for inhibiting IL-1β
Method: as §1, §2, §3, §4, §5, §6, §7, §8, §9, §10, §11, §12

CS(=O)(=O)C=CC#N [3-(methylsulfonyl)acrylonitrile]
% Inhibition ([1]; 0.1 mg/kg oral gavage 1 hour before arachidonic acid): 11% | % Inhibition ([1]; 0.3 mg/kg oral gavage 1 hour before arachidonic acid): 11% | % Inhibition ([1]; 1 mg/kg oral gavage 1 hour before arachidonic acid): 9% | % Inhibition ([1]; 3 mg/kg oral gavage 1 hour before arachidonic acid): 13% | % Inhibition ([1]; 10 mg/kg oral gavage 1 hour before arachidonic acid): 26% | inhibition in arachidonic acid induced ear swelling (in words) ([1]; 10 mg/kg oral, at 60 minutes, vs vehicle, t-test p<0.05): significant inhibition | EC50 [2]: 190 nM | EC50 [3]: 300 nM | analgesic effect (tail flick), morphine plus compound ([4]; 20 mg/kg oral 1 hour before morphine 5 mg/kg s.c., 75 minutes post dosing): strong analgesic effects | latency of tail flick, morphine plus compound vs morphine alone ([4]; 20 mg/kg oral 1 hour before morphine 5 mg/kg s.c., measured at 30, 60, and 75 minutes post morphine dosing): increases the latency of tail flick significantly | EC50 [5]: 160 nM

C[C@@H]1C[C@H]2[C@@H]3CCC4=CC(=O)C=C[C@]4(C)[C@@]3(F)[C@@H](O)C[C@]2(C)[C@@]1(O)C(=O)CO [Dexamethasone, reference compound]
% Inhibition ([1]; 0.3 mg/kg oral gavage 3 hour before arachidonic acid): 39%

CN1CC[C@]23c4c5ccc(O)c4O[C@H]2[C@@H](O)C=C[C@H]3[C@H]1C5 [morphine, reference compound]
analgesic effect (tail flick), morphine alone ([4]; morphine 5 mg/kg s.c., 75 minutes post dosing): no effect
